One may read the EC50 as the concentration that produces a half-maximal response. The term IC50 denotes the concentration at which inhibition is half-maximal. The low end stands for higher potency, the high end for lower potency.

The values below come from PubChem BioAssay AID179 (DTP/NCI, 2004).

The test deals with CEM cells HIV-1 protection, formazan growth assay. In words: NCI AIDS Antiviral Assay. The conditions noted are these: for IC50: measured here: growth of uninfected CEM cells. In a few lines: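 Protection of CEM cells against HIV-1 measured as cell growth via soluble formazan read-out, with five concentrations tested on both infected and uninfected cells; failure to protect may reflect toxicity.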

Active and inactive are the calls of the source.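 The calls were made as follows: active = compounds giving half or more protection of infected cells from virus-caused growth loss, again on retest; inactive = the rest.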 Where a SMILES comes first, the peptide text is derived from it. The star is where a group is joined. Cbz = O=C(OCc1ccccc1)*

`CC1CCN(C2=CC(=O)C(=O)c3cccnc32)CC1`: the result was inactive. The molecule `O=C(CCCC[n+]1ccccc1)Sc1ccccc1C(=O)Nc1ccc(S(=O)(=O)Nc2cnc3ccccc3n2)cc1` yielded an EC50 of 12.3 µM and an IC50 of 19.1 µM. Turning to `CC(=O)Nc1ccccc1/C=C/c1ccccn1`, the EC50 is more than 1050 µM and the IC50 came to 407 µM. Consider `Nc1ccc2c(=S)c3ccccc3[nH]c2c1`, for which the outcome was inactive. Turning to `Clc1ccc2c(NCCCCN3OC3c3ccccc3)ccnc2c1` (centres undefined), the EC50 is more than 200 µM and the IC50 worked out at 5.01 µM. In the case of `N=C1C=CC(=C(c2ccc(N)cc2)c2ccc(N)cc2)C=C1`, the outcome was inactive. For `CCOC(=O)CC(NC(=O)C(CC(=O)OC)NC(=O)C(CC(=O)OC)NC(=O)C(CC(=O)OC)NC(=O)C(CC(=O)OC)NC(=O)C(CC(=O)OC)NC(=O)C(CC(=O)OC)NC(=O)C(CC(=O)OC)NC(=O)OCc1ccccc1)C(=O)OCC` (centres undefined) (Cbz-D(OMe)D(OMe)D(OMe)D(OMe)D(OMe)D(OMe)D(OMe)D(OEt)-OEt; configuration not given here), the EC50 was more than 100 µM and the half-maximal inhibitory concentration (IC50) was more than 100 µM. With `COc1cc(N=Nc2c(S(=O)(=O)O)cc3cc(NC(=O)Nc4ccc5c(O)c(N=Nc6ccc7cc(S(=O)(=O)O)ccc7c6)c(S(=O)(=O)O)cc5c4)ccc3c2O)c(C)cc1N`, the outcome was active. Regarding `COC(=O)c1ccc(OCc2ccc3nc(OC)c(OC)nc3c2)cc1`, the EC50 is more than 4.07 µM and the IC50 was more than 4.07 µM. Regarding `On1c(-c2ccccc2)nc2ccccc2c1=S`, the EC50 is more than 200 µM and the IC50 worked out at 1.45 µM. For `CON(C)c1nc(Cl)nc(N(C)OC)n1`, the EC50 was more than 200 µM and the IC50 is more than 200 µM.

Regarding `CC(C)C(NC(=O)c1ccccc1SC(=O)CCCC[n+]1ccccc1)C(N)=O` (centres undefined), the concentration for a half-maximal effect (EC50) was 1.05 µM and the IC50 amounted to 8.71 µM. `COc1ccc(-c2cc(-c3ccccc3)n(C3OCC(OC(C)=O)C(OC(C)=O)C3OC(C)=O)c(=S)c2C#N)cc1` (centres undefined): the EC50 was more than 200 µM and the concentration for half-maximal inhibition (IC50) was 43.7 µM. For `Cn1c(-c2ccccc2)cc(-c2ccc3c(c2)OCO3)c1-c1ccsc1`, in that order: more than 200 µM and more than 200 µM. For the molecule `COC(=O)C12C(=CCP1(C)=O)C(c1ccccc1)=NN2c1ccccc1` (centres undefined), the EC50 was more than 27.5 µM and the IC50 was more than 27.5 µM.

Turning to `CC(CCC(=O)O)(CCC(=O)O)[N+](=O)[O-]`, the EC50 is more than 1150 µM and the IC50 is more than 1150 µM. With `CCOC(=O)c1cnn2c(SC)ncnc12`, the EC50 is more than 282 µM and the IC50 worked out at 67.6 µM. Regarding `COC(=O)C12CN(C)CC(C(=O)OC)(C1=O)C(c1ccccc1)OC2c1ccccc1` (centres undefined), the outcome was inactive. On the same count and under the same terms, the same measure for `O=c1cc(NCc2ccncc2)[nH]c(=O)[nH]1`: “inactive”; for `COc1ccc(CSc2ccccc2Cn2cccc2)cc1OC`: “inactive”. On the same count and under the same terms, the value for `OCC1NC(CO)C(O)C1O` (centres undefined) was “inactive”. `Nc1cccnc1NCC1(CO)CCCC1`: the EC50 is more than 200 µM and the half-maximal inhibitory concentration (IC50) is more than 200 µM. Consider `Cc1ccc(NC(=O)CSc2nnc(-c3ccc(N=Cc4ccc(Cl)cc4)cc3)o2)cc1`, for which the EC50 was more than 282 µM and the IC50 was 145 µM. For `CC(=O)NC(C(=O)NC(C)C(=O)N1CCCC1C(=O)O)C(C)C` (stereo not drawn) (Ac-Val-Ala-Pro-OH; configuration not given here), in that order: more than 200 µM and more than 200 µM. Taken in the same sequence, the figures for `COC(=O)CCC(=O)NC1C2CC3CC(C2)CC1C3` (centres undefined) were more than 135 µM and more than 135 µM. For `OC12OC3(c4ccc(C(F)(F)F)cc4)C4C5CC(C6C5C3C61)C42` (centres undefined), the outcome was inactive.

Regarding `CCOC(=O)/C(C#N)=C/c1cccc(F)c1`, the EC50 was more than 162 µM and the IC50 was more than 162 µM.

In the case of `COC(=O)C(CCCC1(c2ccccc2)OCCO1)C(C)=O` (centres undefined), the EC50 is more than 200 µM and the IC50 is more than 200 µM. For `CCOC(=O)/C=C/n1c2ccccc2c(=O)c2cc(OC)ccc21`, the EC50 is more than 22.4 µM and the IC50 is more than 22.4 µM.
